Data as given in US20010048926A1, “SYNTHETIC PEPTIDE VACCINES FOR DENTAL CARIES” (priority 1992, published 2001).

Experiments:
[1] = biological target: T1, CAT peptide construct (Streptococcus mutans serotype c, UniProt P08987); test: Cross-reactivity ELISA, plates coated with CAT peptide construct; assay type: binding; conditions: day 63 sera; FIG. 4
T1 construct: residues 442-462 of S. mutans GTF-B; purchased Applied Diagnostics, Foster City, Calif; host or cells: chemical solid phase synthesis
Procedure: Immunogenicity of Peptides: Sprague Dawley CD strain 43 day-old male rats (Charles River Laboratories) were used for injection. Six groups of 4-5 rats were injected subcutaneously in the vicinity of the salivary glands with 50 μg each of GGY, AND, SAND or CAT peptide constructs, 10 μg of GTF, or sham-immunized with buffer alone. The initial injection included complete Freund adjuvant (CFA; Difco); two subsequent injections at 21-day intervals included incomplete Freund adjuvant. Animals were bled prior to injection and 14-21 days after each injection. Serum from coagulated and centrifuged blood was stored frozen at −20° C. until use.
ELISA: Serum IgG and salivary IgA antibodies were tested by enzyme-linked immunosorbent assay (ELISA). Polystyrene microtiter plates (Flow Laboratories) were coated with […] of each peptide construct or 0.5 μg of S. sobrinus GTF. Antibody activity was then measured by incubation with 1:100 to 1:10^6 dilutions of sera, or 1:4 to 1:32 dilutions of saliva. […] Reactivity was recorded as absorbance (A405 nm) in a micro plate reader (Biotek Instruments). Data are reported as absorbance (A405 nm), reciprocal titer, or as ELISA units (EU) which were calculated relative to the levels of appropriate reference sera or salivas from Sprague Dawley rats thrice immunized with the respective peptide construct. […]

[2] = tested on: S. mutans SJ32; test: Protection experiments: caries assessment (modified Keyes method) after S. mutans infection; assay type: in vivo, Sprague-Dawley rats
Description: Experimental Protocol for Protection Experiments: Animals used in the present experiments were derived from germ-free Sprague-Dawley rats that had been reared in the isolator facility of Charles River Laboratories, Wilmington, Mass. (Area 051). […] These rats served as initial breeding stock for dams used in these experiments and were regularly monitored for absence of mutans streptococci. The progeny of the dams used for the present experiments were weaned at approximately 21 days and were subsequently fed high sucrose Diet 2000.
Two experiments were performed. Groups (n=11-12) of 23-26 day-old rats were subcutaneously (sc) injected in the salivary gland vicinity with (experiment 1) GGY (50 μg), AND (50 μg) or GTF(10 μg), or phosphate buffered saline (control animals), or (experiment 2) GGY (50 ;μg) or PBS. Each antigen was incorporated with complete Freund adjuvant in both experiments. Eight (experiment 1) or 14 (experiment 2) days later, rats were reinjected with PBS or with the same antigen and dose in incomplete Freund adjuvant. Six (experiment 1) or 12 (experiment 2) days after the second injection, animals were bled from the tail vein, and saliva was collected after injection of pilocarpine (1.0 mg/100 g body weight). Fourteen (experiment 1) or 11 (experiment 2) days after the second injection, all rats were orally infected with approximately 10^8 S. mutans for 3 consecutive days. Both experiments were terminated 63 days after initial infection.
Caries assessment: The extent and depth of carious lesions in all rat molar teeth (caries score) were microscopically evaluated by a modified Keyes method as previously described (Taubman et al., J. Immunol. 118:710-720 (1977)). Caries scores were determined separately on smooth and on sulcal dental surfaces.

[3] = tested on: anti-GGY serum; test: Epitope mapping by ELISA inhibition, anti-GGY serum on GGY-coated plates; assay type: binding, rat; conditions: anti-GGY serum preincubated with heptamer or intact peptide; FIG. 8
Procedure: Epitope Mapping: B cell epitopes were mapped on the GGY and AND peptides by an ELISA inhibition technique. Anti-GGY or anti-AND sera were preincubated with 13 separate heptamers representing the incremental peptide sequence of the respective peptide, or with intact peptide, followed by the conventional ELISA with intact peptide-coated plates. B cell epitopes were indicated by a significant reduction in absorbance.

[4] = tested on: S. sobrinus GTF; test: Antibody inhibition of glucan synthesis (filter assay, 14C glucose incorporation into water-insoluble glucan); assay type: biochemical, S. sobrinus strain 6715
Description: Glucosyltransferases: Glucosyltransferases (GTF) from S. sobrinus strain 6715 were purified from culture supernatants after bacterial growth in glucose-containing defined media, as described in Taubman et al. (J. Oral Pathol. 17:466-470 (1988)). Enzymes were separated from other culture supernatant proteins by affinity chromatography on Sephadex G-100 (Pharmacia Fine Chemicals), using 6M guanidine HCl as the eluting solvent. GTFs were then obtained from the guanidine HCl eluate by FPLC chromatography on Superose 6 (Pharmacia) using 6M guanidine for elution. GTF preparations contained a mixture of GTF-I, GTF-Sd, and GTF-Si.
Antibody Inhibition of Glucan Synthesis: Selected rat sera were evaluated for their ability to inhibit glucan synthesis catalyzed by S. sobrinus GTF, using a filter assay. Ten μl volumes of sera (1:100 dilutions in 0.02M sodium phosphate buffered saline and 0.02% sodium azide [PBSA], pH 6.5) were preincubated with the respective GTF for 1 hour at 37° C. in a total volume of 0.04 ml PBSA. Then 1.7 mg sucrose, 44 nCi of [^14C-glucose]-sucrose (approximately 100,000 cpm) were added in 0.2 ml PESA in the presence of 37 μg of dextran T10 (Pharmacia). Incubation proceeded for 18 hours at 37° C., after which water-insoluble glucan was collected on Whatman GF/F glass fiber filters, washed with PBSA, and radioactivity determined as described in Smith et al. (Infect. Immunity 62:5470-5476 (1994)).

T1 sequence (P08987 442-462 limits assumed): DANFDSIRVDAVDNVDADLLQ

## GGYEFLLANDVDNSNPVVQ
[1]
  reaction of serum IgG antibody with the CAT peptide: low but significant reaction
[2]; both experiments
  mean and median total, smooth surface, and occlusal caries scores vs sham-injected group: lower than the respective scores of the sham-injected group
[2]; both experiments, p<0.05
  Total molar caries scores vs sham-injected groups: significantly lower
[2]; experiment 1, GGY p<0.032, GTF p<0.045
  smooth surface caries vs sham-injected group: Protection was most evident on smooth surfaces
[2]; experiment 2, p<0.027
  smooth surface caries vs sham-injected group: Protection was most evident on smooth surfaces
[2]; summary statement
  protection after infection of rats with cariogenic S. mutans: significant protection
[3]
  inhibition of GGY antibody binding to intact peptide-coated plates: completely inhibited
[4]; 63 day sera from injected rats, AND p<0.01, FIG. 5
  inhibition of formation of water-insoluble glucan from sucrose by S. sobrinus GTF (in words): more variable
[4]; one rat serum, 63 day, relative to mean of sham sera
  inhibition of GTF activity: 35%
